Test results taken from ChEMBL document CHEMBL1908284, “Rational use of in vitro P-glycoprotein assays in drug discovery” (J Pharmacol Exp Ther, 2001).
Starred links: 1 amine or outer side, 2 acyl side, 3 side chain; linkers in the order of their positions; H or OH if unused. Positions of bridges follow the written chain, without caps; N, C: chain ends. Non-standard residues stand in square brackets, D forms with d. Residues, ends and D or L forms follow the SMILES beside them. Chains are numbered I, II in the order given. Actinocin(9to1) = Cc1c2oc3c(C)ccc(C(=O)[*:1])c3nc-2c(C(=O)[*:2])c(N)c1=O; NMeV = CN[C@H](C(=O)O)C(C)C; Sar = CNCC(=O)O

Tests used:
[1] = molecular target: T1, ATP-dependent translocase ABCB1 (MDR1) (Homo sapiens, UniProt P08183); test: in vitro; conditions: dog
[2] = molecular target: T2, ATP-dependent translocase ABCB1 (Homo sapiens, UniProt P08183); conditions: spodoptera frugiperda, sf9, 20 µM;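 also: Compound-stimulated ATPase activity measured in membrane preparations of MDR1-expressing Sf9 cells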
[3] = molecular target: T1, ATP-dependent translocase ABCB1 (MDR1); test: in vitro; conditions: dog; remark: listed apart in the source
[4] = molecular target: T1, ATP-dependent translocase ABCB1 (MDR1); test: in vitro; conditions: dog; remark: listed apart in the source
[5] = molecular target: T2, ATP-dependent translocase ABCB1; test: TP_TRANSPORTER: ATP hydrolysis in MDR1-expressing Sf9 cells; type: functional

T1 sequence (P08183 whole entry): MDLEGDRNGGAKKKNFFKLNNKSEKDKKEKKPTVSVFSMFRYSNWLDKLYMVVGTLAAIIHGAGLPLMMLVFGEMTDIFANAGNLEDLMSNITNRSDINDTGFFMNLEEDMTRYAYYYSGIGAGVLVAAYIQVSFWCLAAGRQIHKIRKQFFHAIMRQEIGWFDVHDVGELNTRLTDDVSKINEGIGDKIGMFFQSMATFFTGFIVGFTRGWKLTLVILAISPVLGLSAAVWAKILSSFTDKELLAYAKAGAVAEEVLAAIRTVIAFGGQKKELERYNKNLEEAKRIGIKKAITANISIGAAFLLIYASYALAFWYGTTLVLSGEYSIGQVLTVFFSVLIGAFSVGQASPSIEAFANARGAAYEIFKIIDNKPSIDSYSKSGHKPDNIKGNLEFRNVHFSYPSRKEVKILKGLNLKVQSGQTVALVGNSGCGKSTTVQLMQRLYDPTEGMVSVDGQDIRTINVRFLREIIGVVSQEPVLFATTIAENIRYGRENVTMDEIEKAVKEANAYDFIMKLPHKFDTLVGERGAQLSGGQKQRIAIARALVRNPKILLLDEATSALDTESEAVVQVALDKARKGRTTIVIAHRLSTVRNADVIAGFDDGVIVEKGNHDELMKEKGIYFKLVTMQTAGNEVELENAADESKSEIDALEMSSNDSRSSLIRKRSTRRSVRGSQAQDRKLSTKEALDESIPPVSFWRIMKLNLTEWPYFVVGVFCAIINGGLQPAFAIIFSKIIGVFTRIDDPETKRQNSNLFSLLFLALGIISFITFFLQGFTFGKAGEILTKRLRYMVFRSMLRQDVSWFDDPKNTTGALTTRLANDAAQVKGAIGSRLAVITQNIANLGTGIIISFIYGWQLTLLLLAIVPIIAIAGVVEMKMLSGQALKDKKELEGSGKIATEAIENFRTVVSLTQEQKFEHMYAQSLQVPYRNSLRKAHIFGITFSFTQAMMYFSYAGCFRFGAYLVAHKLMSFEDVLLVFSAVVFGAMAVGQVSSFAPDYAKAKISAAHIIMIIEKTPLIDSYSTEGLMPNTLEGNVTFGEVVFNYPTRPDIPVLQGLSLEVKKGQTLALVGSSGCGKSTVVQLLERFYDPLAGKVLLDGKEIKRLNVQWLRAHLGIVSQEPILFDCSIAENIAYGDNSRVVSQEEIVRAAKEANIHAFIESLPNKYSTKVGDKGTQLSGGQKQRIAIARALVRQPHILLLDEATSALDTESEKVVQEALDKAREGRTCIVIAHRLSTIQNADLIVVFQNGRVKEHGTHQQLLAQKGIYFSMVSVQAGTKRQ
T2 sequence (P08183 whole entry): as above

Structure (SMILES) | Papp A→B ([1]; MDCK-MDR1, Papp) [×10⁻⁶ cm/s] | Ratio_ATPase activity [2] | efflux ratio ([3]; MDCK-MDR1, Ratio_Papp) | Papp B→A ([4]; MDCK-MDR1, Papp) [×10⁻⁶ cm/s] | Papp A→B ([1]; MDCK-MDR1) [×10⁻⁶ cm/s] | efflux ratio ([3]; MDCK-MDR1) | Papp B→A ([4]; MDCK-MDR1) [×10⁻⁶ cm/s] | Activity [5]
Cc1c(O)cccc1C(=O)N[C@@H](CSc1ccccc1)[C@H](O)CN1C[C@H]2CCCC[C@H]2C[C@H]1C(=O)NC(C)(C)C | 3.81 | 5.21 | 8.86 | 33.8 | – | – | – | –
CNS(=O)(=O)Cc1ccc2[nH]cc(CCN(C)C)c2c1 | 0.953 | 1.23 | 1.37 | 1.3 | – | – | – | –
CC[C@@]1([C@@H]2O[C@@H]([C@H]3O[C@@](O)(CO)[C@H](C)C[C@@H]3C)C[C@@H]2C)CC[C@H]([C@]2(C)CC[C@]3(C[C@H](O)[C@@H](C)[C@@H]([C@@H](C)[C@@H](OC)[C@H](C)C(=O)O)O3)O2)O1 [MONENSIN] | – | 6.71 | – | – | 10.2 | 2.88 | 29.4 | –
CCN(CC)CCCC(C)Nc1ccnc2cc(Cl)ccc12 (stereo not drawn) [CHLOROQUINE] | 4.49 | 0.77 | 3.83 | 17.2 | – | – | – | is not a substrate [-]
Cc1c2oc3c(C)ccc(C(=O)N[C@@H]4C(=O)N[C@H](C(C)C)C(=O)N5CCC[C@H]5C(=O)N(C)CC(=O)N(C)[C@@H](C(C)C)C(=O)O[C@@H]4C)c3nc-2c(C(=O)N[C@@H]2C(=O)N[C@H](C(C)C)C(=O)N3CCC[C@H]3C(=O)N(C)CC(=O)N(C)[C@@H](C(C)C)C(=O)O[C@@H]2C)c(N)c1=O [DACTINOMYCIN] (I: T[dV]P[Sar][NMeV] / II: T[dV]P[Sar][NMeV]; ester I:1-I:C, II:1-II:C; linker I:N-II:N via Actinocin(9to1)) | < 0.021 | 1.2 | > 80 | 1.6 | – | – | – | is not a substrate [-]
Nc1nc(N)c2nc(-c3ccccc3)c(N)nc2n1 | 18.5 | 1.12 | 0.99 | 18.4 | – | – | – | –
COC(=O)[C@H]1[C@H]2C[C@@H]3c4[nH]c5cc(OC)ccc5c4CCN3C[C@H]2C[C@@H](OC(=O)c2cc(OC)c(OC)c(OC)c2)[C@@H]1OC [RESERPINE] | 6.81 | 3.85 | 3.71 | 25.3 | – | – | – | –
CCC1=C[C@@H]2CN(C1)Cc1c([nH]c3ccccc13)[C@@](C(=O)OC)(c1cc3c(cc1OC)N(C)[C@H]1[C@@](O)(C(=O)OC)[C@H](OC(C)=O)[C@]4(CC)C=CCN5CC[C@]31[C@@H]54)C2 [VINORELBINE] | 0.252 | 1.15 | 69.8 | 17.6 | – | – | – | is not a substrate [-]
COC(=O)C1=C(C)NC(C)=C(C(=O)OC)C1c1ccccc1[N+](=O)[O-] [NIFEDIPINE] | – | – | – | – | – | – | – | substrate [+]
CC[C@H]1C(=O)Nc2ccc(F)cc2N1C(=O)OC(C)C [OPAVIRALINE] | 75.8 | 1.02 | 0.96 | 72.6 | – | – | – | –
COc1cc2nc(N3CCN(C(=O)c4ccco4)CC3)nc(N)c2cc1OC [PRAZOSIN] | 14.3 | 3.4 | 4.63 | 66.1 | – | – | – | –
COc1cccc2c1C(=O)c1c(O)c3c(c(O)c1C2=O)C[C@@](O)(C(=O)CO)C[C@@H]3O[C@H]1C[C@H](N)[C@H](O)[C@H](C)O1 [DOXORUBICIN] | 1.45 | 0.95 | 0.67 | 0.973 | – | – | – | –
CCC(C)n1ncn(-c2ccc(N3CCN(c4ccc(OCC5COC(Cn6cncn6)(c6ccc(Cl)cc6Cl)O5)cc4)CC3)cc2)c1=O (stereo not drawn) [ITRACONAZOLE] | 57.1 | 1.2 | 0.97 | 55.2 | – | – | – | –
CN(C)C(=O)Oc1cccc([N+](C)(C)C)c1.[Br-] [NEOSTIGMINE BROMIDE] | – | 1.06 | – | – | 0.758 | 1.81 | 1.37 | is not a substrate [-]
Cc1ncc2n1-c1ccc(Cl)cc1C(c1ccccc1F)=NC2 [MIDAZOLAM] | – | 3.82 | – | – | 70.1 | 0.81 | 56.4 | substrate [+]
CC[C@]1(O)C[C@H]2CN(CCc3c([nH]c4ccccc34)[C@@](C(=O)OC)(c3cc4c(cc3OC)N(C=O)[C@H]3[C@@](O)(C(=O)OC)[C@H](OC(C)=O)[C@]5(CC)C=CCN6CC[C@]43[C@@H]65)C2)C1 [VINCRISTINE] | 0.236 | 1.46 | 6.31 | 1.49 | – | – | – | is not a substrate [-]
CN(C)CCC(c1ccc(Cl)cc1)c1ccccn1 (racemic) [CHLORPHENIRAMINE] | 56.2 | 0.97 | 1.14 | 64.2 | – | – | – | –
CN(Cc1cnc2nc(N)nc(N)c2n1)c1ccc(C(=O)N[C@@H](CCC(=O)O)C(=O)O)cc1 [METHOTREXATE] | 1.05 | 0.91 | 0.67 | 0.706 | – | – | – | –
CC[C@H]1OC(=O)[C@H](C)[C@@H](O[C@H]2C[C@@](C)(OC)[C@@H](O)[C@H](C)O2)[C@H](C)[C@@H](O[C@@H]2O[C@H](C)C[C@H](N(C)C)[C@H]2O)[C@](C)(OC)C[C@@H](C)C(=O)[C@H](C)[C@@H](O)[C@]1(C)O [CLARITHROMYCIN] | 1.08 | 3.55 | 31.3 | 33.6 | – | – | – | substrate [+]
CCOc1ccc(-c2nc3cc(-c4nc5cc(N6CCN(C)CC6)ccc5[nH]4)ccc3[nH]2)cc1 | – | 0.86 | – | – | 0.335 | 7.75 | 2.6 | –

Structure (SMILES) | Papp A→B ([1]; MDCK-MDR1, Papp) [×10⁻⁶ cm/s] | Ratio_ATPase activity [2] | efflux ratio ([3]; MDCK-MDR1, Ratio_Papp) | Papp B→A ([4]; MDCK-MDR1, Papp) [×10⁻⁶ cm/s] | Papp A→B ([1]; MDCK-MDR1) [×10⁻⁶ cm/s] | efflux ratio ([3]; MDCK-MDR1) | Papp B→A ([4]; MDCK-MDR1) [×10⁻⁶ cm/s] | Activity [5]
CN(C)C(=O)C(CCN1CCC(O)(c2ccc(Cl)cc2)CC1)(c1ccccc1)c1ccccc1 [LOPERAMIDE] | – | 3.75 | – | – | 9.98 | 7.77 | 77.6 | –
CC(C)(C)NC(=O)[C@@H]1C[C@@H]2CCCC[C@@H]2CN1C[C@@H](O)[C@H](Cc1ccccc1)NC(=O)[C@H](CC(N)=O)NC(=O)c1ccc2ccccc2n1 | 0.301 | 7.11 | 165 | 49.5 | – | – | – | –
CN(C)C(=O)Oc1ccc[n+](C)c1 [PYRIDOSTIGMINE] | – | 0.89 | – | – | 1.02 | 1.24 | 1.26 | –
CC[C@]1(O)C[C@@H]2CN(CCc3c([nH]c4ccccc34)[C@@](C(=O)OC)(c3cc4c(cc3OC)N(C)[C@H]3[C@@](O)(C(=O)OC)[C@H](OC(C)=O)[C@]5(CC)C=CCN6CC[C@]43[C@@H]65)C2)C1 [VINBLASTINE] | < 1 | 4.31 | > 23 | 23.2 | – | – | – | –
CC(C)(C)c1ccc(C(O)CCCN2CCC(C(O)(c3ccccc3)c3ccccc3)CC2)cc1 (stereo not drawn) [TERFENADINE] | 6.56 | – | – | 30.6 | – | – | – | –
C[C@]12CC[C@H]3[C@@H](CCC4=CC(=O)CC[C@@]43C)[C@@H]1CC[C@@H]2O [TESTOSTERONE] | – | 1.32 | – | – | 91.6 | 0.73 | 66.8 | –
COc1cc2c(cc1OC)CN(CCc1ccc(NC(=O)c3cccc4c(=O)c5cccc(OC)c5[nH]c34)cc1)CC2 | 0.212 | – | – | 1.86 | – | – | – | –
CC(=O)Nc1ccc(OCC(O)CNC(C)C)cc1 (stereo not drawn) [PRACTOLOL] | 1.24 | 1.42 | 1.32 | 1.64 | – | – | – | –
COc1cc([C@@H]2c3cc4c(cc3[C@@H](O[C@@H]3O[C@@H]5CO[C@@H](C)O[C@H]5[C@H](O)[C@H]3O)[C@H]3COC(=O)[C@H]23)OCO4)cc(OC)c1O [ETOPOSIDE] | 2.14 | – | – | 6.06 | – | – | – | –
O=C1c2c(O)ccc(O)c2C(=O)c2c(NCCNCCO)ccc(NCCNCCO)c21 [MITOXANTRONE] | 0.191 | – | – | 0.644 | – | – | – | –
CNC(=C[N+](=O)[O-])NCCSCc1ccc(CN(C)C)o1 [RANITIDINE] | 1.44 | 1.23 | 1.35 | 1.95 | – | – | – | –
COc1ccc([C@@H]2Sc3ccccc3N(CCN(C)C)C(=O)[C@@H]2OC(C)=O)cc1 [DILTIAZEM] | 41.3 | 2.64 | 1.64 | 67.6 | – | – | – | –
CN/C(=N/CCSCc1nc[nH]c1C)NC#N [CIMETIDINE] | – | 1.31 | – | – | 1.23 | 2.19 | 2.69 | –
CN(C)CCCN1c2ccccc2Sc2ccc(Cl)cc21 [CHLORPROMAZINE] | 43.8 | 2.42 | 1.09 | 47.7 | – | – | – | –
NC12CC3CC(CC(C3)C1)C2 [AMANTADINE] | 18.6 | – | – | 15.7 | – | – | – | –
C[C@@H]1C[C@H]2[C@@H]3CCC4=CC(=O)C=C[C@]4(C)[C@@]3(F)[C@@H](O)C[C@]2(C)[C@@]1(O)C(=O)CO [DEXAMETHASONE] | 4.35 | 1.15 | 12.4 | 53.7 | – | – | – | –
COC(=O)[C@@H]1[C@H]2C[C@H]3c4[nH]c5ccccc5c4CCN3C[C@@H]2CC[C@@H]1O [YOHIMBINE] | 42.9 | 1.05 | 1.17 | 50.1 | – | – | – | –
CC[C@H]1OC(=O)[C@H](C)[C@@H](O[C@H]2C[C@@](C)(OC)[C@@H](O)[C@H](C)O2)[C@H](C)[C@@H](O[C@@H]2O[C@H](C)C[C@H](N(C)C)[C@H]2O)[C@](C)(O)C[C@@H](C)C(=O)[C@H](C)[C@@H](O)[C@]1(C)O [ERYTHROMYCIN] | 0.094 | – | – | 1.35 | – | – | – | –
C=C[C@H]1C[N@@]2CC[C@H]1C[C@@H]2[C@@H](O)c1ccnc2ccc(OC)cc12 [QUINIDINE] | 3.64 | 2.54 | 27.2 | 99 | – | – | – | –
